{"source": "paper PMC6114082", "about": "“Synthesis of aminophenylhydroxamate and aminobenzylhydroxamate derivatives and in vitro screening for antiparasitic and histone deacetylase inhibitory activity” (International Journal for Parasitology: Drugs and Drug …, 2018)", "key": {"[1]": {"tested_on": "T. brucei MHOM/CI/81/DAL967", "test": "Antitrypanosomal activity, T. brucei", "assay_type": "cell-based, Trypanosoma brucei gambiense", "conditions": "Trypanosoma brucei", "description": "(§1) The antitrypanosomatid activity of the compounds was ascertained as follows. Leishmania parasites were cultured at 26 °C in SDM-79 medium supplemented with 10% fetal calf serum (FCS), and the antileishmanial activity was determined according to a previously published protocol for LUC-expressing and wild-type Leishmania ([Sereno et al., 2001], [Abbassi et al., 2008]). Trypanosoma brucei gambiense were grown at 26 °C in Cunningham's medium supplemented with 10% FCS, 2 mM GlutaMAX-1 (Gibco, USA), 100 U/ml penicillin, 100 μg/ml streptomycin and […] bovine hemin. The epimastigote form of Trypanosoma cruzi (strain Y cl7 scl2, lineage Tc2) (kindly provided by Philippe Truc and Christian Barnabé, UMR 177 IRD-CIRAD InterTryp, Montpellier, France) were grown at 26 °C in liver infusion tryptose (LIT) medium, supplemented with 10% FCS, 2 mM GlutaMAX™-I, 100 U/ml penicillin, 100 μg/ml streptomycin and bovine hemin (20 mg/l) (Gibco). The antitrypanosomatids activity was determined using a protocol that was initialy set up for wild-type Leishmania ([Abbassi et al., 2008]). To assess the drug activity on Toxoplasma gondii, confluent human foreskin fibroblast (HFF) monolayers were infected with YFP-type I Rh kindly provided by B. Striepen, see ([Striepen et al., 1998]) or Tomato-type II Pru kindly provided by N. Blanchard (Toulouse), expressing parasites at 5 × 10^4 per well, which were then centrifuged for 30 s at 1300 rpm and incubated for 30 min in a water bath at 37 °C to allow invasion. The wells were then washed three times with PBS to eliminate extracellular parasites, and the drugs were added at various concentrations ranging from 1 to 50 μM. After incubation for 24 h at 37 °C in a humidified atmosphere containing 5% CO2, the cells were fixed in 2.5% methanol-free formaldehyde (Tebu-bio)/PBS for 30 min at room temperature. Nuclei were stained with Hoechst 33258 (2 μg/ml, Molecular Probes) for 20 min and then washed three times with water for 10 min each time. The number of infected cells, i.e., cells harboring a parasitophorous vacuole, and the number of parasites per vacuole were determined using an Olympus ScanR microscope ( × 20 objective) and ScanR software. The parasitic index in % compared to the control was calculated as follows: (PI=((number of parasite/100 cells in treated wells) x (% of infected macrophage in treated well)/(number of parasite/100 cells in untreated wells) x (% of infected macrophage in untreated wells))*100)."}, "[2]": {"tested_on": "L. infantum MHOM/MA/67/ITMAP-264", "test": "Antileishmanial activity, L. infantum promastigotes (luciferase expressing strain)", "assay_type": "cell-based, Leishmania infantum", "description": "as §1"}, "[3]": {"test": "Cytotoxicity, HEPG2 cell line", "assay_type": "cell-based, human", "conditions": "human, HepG2 cells"}, "HEPG2 cells": {"tested_on": "HEPG2 cells", "test": "Cytotoxicity, HEPG2 cell line", "assay_type": "cell-based, human"}, "[4]": {"tested_on": "Pru Type II strain of T. gondii", "test": "Anti-Toxoplasma activity in infected HFF monolayers, type II Pru strain", "assay_type": "cell-based, Toxoplasma gondii", "conditions": "for IC50: 24 h, type II strain, in HFF", "description": "as §1, with “The wells were then washed three times with PBS to eliminate extracellular parasites, and the drugs were added at various concentrations ranging from 1 to 50 μM. After incubation for 24 h at 37 °C in a humidified atmosphere containing 5% CO2, the cells were fixed in 2.5% methanol-free formaldehyde (Tebu-bio)/PBS for 30 min at room temperature. Nuclei were stained with Hoechst 33258 (2 μg/ml, Molecular Probes) for 20 min and then washed three times with water for 10 min each time.” left out"}, "HDAC 1": {"target": "T1, HDAC 1 (Homo sapiens, UniProt Q13547)", "T1 construct": "purchased Active Motif, Belgium", "T1 sequence (Q13547 whole entry)": "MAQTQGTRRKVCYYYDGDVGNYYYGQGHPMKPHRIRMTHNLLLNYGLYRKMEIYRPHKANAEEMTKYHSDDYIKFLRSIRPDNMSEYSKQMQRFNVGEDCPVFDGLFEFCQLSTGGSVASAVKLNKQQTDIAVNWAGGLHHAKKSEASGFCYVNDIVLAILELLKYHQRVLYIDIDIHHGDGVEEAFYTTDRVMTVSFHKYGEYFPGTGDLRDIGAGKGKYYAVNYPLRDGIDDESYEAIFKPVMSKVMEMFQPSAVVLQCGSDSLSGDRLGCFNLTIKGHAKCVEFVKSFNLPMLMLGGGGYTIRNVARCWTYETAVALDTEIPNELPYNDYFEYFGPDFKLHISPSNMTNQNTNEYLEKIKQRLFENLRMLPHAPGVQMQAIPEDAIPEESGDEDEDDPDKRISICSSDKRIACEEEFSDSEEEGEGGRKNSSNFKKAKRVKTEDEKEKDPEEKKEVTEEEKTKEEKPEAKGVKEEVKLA", "test": "Fluorometric HDAC assay, recombinant HDAC1", "assay_type": "biochemical", "description": "The HDACi effect against HeLa nuclear extracts and recombinant proteins were measured using a fluorometric HDAC assay kit (Active Motif, Belgium) according to the manufacturer's instructions. Briefly, 30 μL of HeLa nuclear extract (Active Motif, Belgium) or various HDAC recombinant proteins (Active Motif, Belgium) was mixed with 5 μL of a 10 × compound and 10 μL of assay buffer. A negative control containing trichostatin A at a final concentration of 2 μM was analyzed for each independent experiment. A fluorogenic substrate (10 μL) was added, and the reaction was allowed to proceed for 30 min at room temperature and then stopped by the addition of a developer containing trichostatin A. The fluorescence was monitored after 30 min at excitation and emission wavelengths of 360 and 460 nm, respectively."}, "[5]": {"tested_on": "L. tropica MHOM/BR/73/5-ASKM", "test": "Antileishmanial activity, L. tropica promastigotes", "assay_type": "cell-based, Leishmania tropica", "conditions": "Leishmania tropica", "description": "as §1"}, "[6]": {"test": "Cytotoxicity, MTT assay, HFF", "assay_type": "cell-based, human", "conditions": "human, HFF cells", "description": "The human monocytic cell line THP-1 was cultivated in RPMI medium supplemented with 10% FCS, 2 mM GlutaMAX, 100 U/ml penicillin, and 100 μg/ml streptomycin. HFF cells were cultivated in Dulbecco's modified Eagle's medium (DMEM) with Earle's salts containing 10% FCS, 10 mM HEPES, 1 mM sodium pyruvate, 2 mM GlutaMAX, 100 U/ml penicillin, and 100 μg/ml streptomycin. The THP-1 and HFF cells were maintained in a 5% CO2 incubator at 37 °C. Cytotoxicity was evaluated via the MTT assay, and the IC50 values were calculated using Prism software (Prism 4 for Mac OS X, version 5.0b, December, 2008)."}, "HDAC 8": {"target": "T2, HDAC 8 (Homo sapiens, UniProt Q9BY41)", "T2 construct": "purchased Active Motif, Belgium", "T2 sequence (Q9BY41 1-377)": "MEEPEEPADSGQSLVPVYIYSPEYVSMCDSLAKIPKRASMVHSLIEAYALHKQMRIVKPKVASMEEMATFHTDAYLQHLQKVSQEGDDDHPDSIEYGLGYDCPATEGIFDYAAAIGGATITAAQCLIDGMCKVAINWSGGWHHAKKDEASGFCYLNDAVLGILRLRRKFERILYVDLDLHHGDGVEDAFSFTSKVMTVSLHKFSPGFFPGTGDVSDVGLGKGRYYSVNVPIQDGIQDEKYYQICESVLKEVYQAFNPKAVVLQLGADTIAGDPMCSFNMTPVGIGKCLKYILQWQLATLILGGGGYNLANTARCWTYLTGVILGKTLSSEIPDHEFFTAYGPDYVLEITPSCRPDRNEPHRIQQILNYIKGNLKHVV", "test": "Fluorometric HDAC assay, recombinant HDAC8", "assay_type": "biochemical", "description": "(§2) The HDACi effect against HeLa nuclear extracts and recombinant proteins were measured using a fluorometric HDAC assay kit (Active Motif, Belgium) according to the manufacturer's instructions. […] A negative control containing trichostatin A at a final concentration of 2 μM was analyzed for each independent experiment."}, "[7]": {"tested_on": "T. gondii deacetylase activity (total protein extract)", "test": "Deacetylase activity of total protein extract of T. gondii tachyzoites", "assay_type": "biochemical, Toxoplasma gondii", "conditions": "0.125 μM", "description": "as §2\nHDAC activity was determined from total protein extracted from T. gondii."}, "T. gondi RH-YFP": {"tested_on": "T. gondi RH-YFP", "test": "Anti-Toxoplasma activity in infected HFF monolayers, type I RH-YFP (parasitic index)", "assay_type": "cell-based, Toxoplasma gondii"}}}
{"smiles": "COc1cccc(CC(=O)Nc2ccc(C(=O)NO)cc2)c1", "note": "[Compound 363, N-hydroxy-4-[2-(3-methoxyphenyl)acetamido]benzamide]", "values": [{"measurement": "IC50", "setting": "[1]", "value": "> 60000", "unit": "nM"}, {"measurement": "IS^b selectivity index for L. infantum", "setting": "[2]; IC50 THP-1 / IC50 Leishmania infantum (footnote)", "value": "<1"}, {"measurement": "IC50", "setting": "[2]; Leishmania infantum, promastigotes, luciferase expressing strain", "value": "> 60000", "unit": "nM"}, {"measurement": "IC50", "setting": "[3]", "value": "> 15000", "unit": "nM"}, {"measurement": "index of selectivity, HEPG2 vs T. gondii tachyzoites", "setting": "HEPG2 cells", "value": 42}, {"measurement": "IS^a selectivity index for T. gondii, second value marked #", "setting": "[4]; IC50 HFF / IC50 T. gondii type II Pru strain", "value": 46}, {"measurement": "IC50", "setting": "[4]; Toxoplasma gondii", "value": 2250, "unit": "nM"}, {"measurement": "IC50", "setting": "[4]", "value": 2270, "unit": "nM"}, {"measurement": "Fold, HDAC 1", "setting": "HDAC 1; 363 as compared to SAHA", "value": 2.43}, {"measurement": "IC50", "setting": "HDAC 1; recombinant protein, read-out: rHDAC 1 IC50", "value": "257 ± 50", "unit": "nM"}, {"measurement": "IC50", "setting": "[5]", "value": "> 60000", "unit": "nM"}, {"measurement": "IC50", "setting": "[6]", "value": "105000 ± 10500", "unit": "nM"}, {"measurement": "Fold, HDAC 8", "setting": "HDAC 8; 363 as compared to SAHA", "value": 0.26}, {"measurement": "IC50", "setting": "HDAC 8; recombinant protein, read-out: rHDAC 8 IC50", "value": "863 ± 45", "unit": "nM"}, {"measurement": "inhibition of T. gondii deacetylase activity", "setting": "[7]", "value": 44, "unit": "%"}, {"measurement": "IS^a selectivity index for T. gondi", "setting": "T. gondi RH-YFP; IC50 HFF / IC50 T. gondi RH-YFP", "value": 300}, {"measurement": "IC50", "setting": "T. gondi RH-YFP; Toxoplasma gondii, read-out: anti-Toxoplasma activity IC50, range over strains, type I and type II strains together (abstract)", "value": "350 to 2250", "unit": "nM"}, {"measurement": "selectivity index, range over human cell lines", "setting": "T. gondi RH-YFP; using different human cell lines", "value": "10–300"}]}
